Measured values as given in patent US20260108561A1, “COMPOSITION FOR CELL TRANSPLANTATION THERAPY AND THE USE THEREOF” (NATIONAL UNIVERSITY OF SINGAPORE, priority 2022, published 2026).

Legend:
[1] = test system: neurons in the penumbra area; conditions: 100 mg/kg, i.p. daily; cited from earlier work
[2] = test system: grafted NPCs in the ischemic core; assay: Survival and differentiation of NPCs transplanted into the ischemic core of photothrombotic stroke mice (immunohistochemistry, stereology); type: in vivo, SCID mice; conditions: for Cleaved-caspase3 immunostaining in grafted cells / Grafted (GFP+) cells in the stroke cavity: 7 days post transplantation; for Grafted (GFP+) cells in the stroke cavity: NPCs injected into ischemic core 2 weeks after stroke; for Gross appearance of the cortex: 30 days post transplantation; for Survival of grafted NPCs (overall conclusion): NPCs transplanted into the ischemic core
Method: All animal studies were performed in accordance with the institutional animal care and use committee at Duke-NUS Medical School. Ischemic strokes in adult (10-12 weeks) male SCID mice were induced through photo-thrombosis. Briefly, Rose Bengal was administered intravenously at a dose of 0.1 mg/g per mouse. Mouse skull was exposed under 2% isoflurane anaesthesia. The right motor cortex (anterior-posterior [AP]=+2 mm, lateral [L]=+1 mm) received a 2.5-mm diameter illumination of cold light through the intact skull for 15 min. Animals were randomly grouped and transplanted with forebrain glutamatergic precursors.
Animals were sacrificed with a lethal dose of pentobarbital (250 mg/kg) and immediately perfused with PBS followed by 4% cold paraformaldehyde (PFA). The brain samples were fixed in cold PFA for 2 hours and immersed in 30% sucrose at 4° C. for around 4 days until sunk. Serial coronal (1.54 mm to-0.22 mm from Bregma) sections were collected on a freezing microtome at a 40-μm thickness and stored at −20° C. For immunostaining, sections were incubated with blocking solution containing 10% normal donkey serum and 0.2% Triton-100 for 1 h at room temperature. Then sections were incubated with primary antibodies overnight at 4° C.
To quantify the population of DCX, SOX2, Ki67, NF and NeuN positive cells to total grafted cells (eGFP and Hoechst co-labelled), one brain slice was selected from every 6 serial slices on for stereological counting on Zeiss M1 Microscope with Stereo Investigator software (MBF Bioscience). In brief, immunolabeled slices were scanned on Zeiss M1 Microscope, grafts area was contoured manually, and then corresponding fluorescence labelled cells were unbiasedly counted. Population of cleaved-caspase3 expressing cells to total grafted cells was counted with ImageJ software. Data were replicated 4 to 6 times per group. To quantify the population of Brn2, Ctip2 and Foxp2 expressing cells to total GFP^+ cells on coverslips, all coverslips were scanned and captured by 20× objective with a confocal microscope (Nikon), and then was counted with ImageJ software. Data were replicated three times. All data were expressed as means±SEM.

[3] = test system: NPCs; assay: Apoptosis of cultured NPCs (cleaved-caspase3, TUNEL) under CCR5 ligands and CCR5 blockade; type: cell-based, Human; conditions: for Proportion of cleaved-caspase3+ cells in NPCs: single ligand 300 ng/mL, compared with the control group
Method: Induction of forebrain glutamate NPCs was done using the following procedure. Briefly, H9 hESCs or eGFP H9 hESCs were cultured on 6-well plates with Matrigel/vitronectin coated for one week. ESC colonies were gently blown off by 1 mL pipettes to form cell aggregates at day 0. Cell aggregates were cultured in flasks for 7 days with the neural induction medium (NIM) consisting of DMEM/F12, 1×N2 supplement, 1×NEAA, 2-μM SB431542, and 2-μM DMH-1. Cell aggregates were adhered to 6-well plates in the presence of NIM with 5% FBS for 6 hours, and then fresh NIM was changed. The aggregates were fed with NIM till neural rosette formation at day 16. The rosettes were gently blown off using 1 mL pipettes and suspended in flasks with NIM for 7 days. Then, NIM was changed every four days from day 23. The neural precursor cells (NPCs) were maintained in NIM till transplantation or immunostaining. NPCs were digested into single cells using TrypLE for 3 min at day 49. After one additional day of culture in NIM supplemented with 1×B27 and 100 nM compound E, the NPCs were collected for transplantation in ischemic stroke models. B-27 supplement is a defined yet complex mixture of antioxidant enzymes, proteins, vitamins, and fatty acids that are combined in optimized ratios to support neuronal survival in culture. Compound E is a γ-secretase inhibitor. For immunostaining, NPCs were seeded on glass coverslips and staining was performed after one-week culture.
(§1) To test the effects of CCR5 activation on NPCs and neurons, cells were seeded on Matrigel coated coverslips or 6-well plates and treated with overdose (300 ng/mL) ligands of CCR5. CCL3, CCL4, CCL5 and their combination (CCL3/4/5) were respectively added into NIM every other day. After four-day treatment, NPCs or neurons were collected for staining or immunoblotting.
(§2) 1×10^^5 NPCs were seeded on coverslips in each well of 24-well plate for two days to 50% confluency upon transduction at 37° C. in a humidified 5% C02 incubator. The lentiviral shRNAs (MOIs of 20) were used to infect NPCs overnight at 37° C. The medium containing lentiviral particles was removed from wells and replaced with […] fresh pre-warmed NIM. The infected NPCs were collected for immunostaining or western blotting at 5 days after transduction.
Sections were subsequently washed and incubated with corresponding secondary antibodies for 1 h at room temperature. Immunolabeled sections were mounted by Fluoromount-G with Hoechst. For TUNEL staining, cells on coverslips were fixed in PBS with 4% PFA for 30 mins, and then incubated with Terminal Deoxynucleotidyl Transferase (TdT) Equilibration buffer (Elabscience) at 37° C. for 30 mins. NPCs were incubated in labeling solution (Elabscience) with TdT enzyme at 37° C. for 1 hour.

[4] = test system: CCR5, CCL3, CCL4, and CCL5 protein expression; assay: Western blotting of CCR5 and CCL3/4/5 in transplanted cortical tissue; type: in vivo, SCID mice; conditions: day 44 after ischemic lesion / 30 days post-transplantation; normalized to GAPDH
Method: Animals were anaesthetized and perfused with cold PBS at 2, 14 and 44 days after stroke. The injured cortices or grafts (an area with a radius of 1 mm from the epicenter) were dissected manually under a stereomicroscope (Zeiss) and stored at −80° C.
NPCs and neurons were washed using PBS and resuspended in RIPA buffer with protease inhibitor and phosphatase inhibitor. Samples were collected to 1.5 mL tubes on ice for 15 mins. For tissue samples, extracts were sonicated in cold RIPA buffer with protease/phosphatase inhibitors. All samples were quantified using Quick Start™ Bradford Protein Assay (Bio-RAD), and then Laemmli buffer (Bio-RAD) was added to each tube. Samples were heated at 95° C. for 5 mins and stored at −80° C. Total 15 μg of extract was loaded to each well on a 10% Bis-Tris pre-casted gel for electrophoresis.
After running at 120 V for 40 mins, proteins were transferred to PVDF membranes at 400 mA for 30 mins. […] Then membranes were incubated with primary antibodies overnight at 4° C.: anti-CCR5 (1:1000, Abcam, ab110103), anti-CCL3 (1:1000, Abcam, ab259372), anti-CCL4 (1:1000, Abcam, EP521Y), anti-CCL5 (1:1000, Thermo Fisher Scientific, 701030), anti-GAPDH (1:5000, Thermo Fisher Scientific, MA5-15738). The membranes were washed three times by 0.1% TBST and incubated with corresponding secondary antibodies at room temperature for 1 hour. The protein bands were presented by Enhanced Chemiluminescence Substrate (Promega) and visualized in Bio-RAD Chemidoc system. All intensity of bands was analysed by ImageJ software and normalized to corresponding GAPDH bands.

[5] = molecular target: T1, CCR5 (Homo sapiens, UniProt P51681); assay: CCR5 expression on cultured NPCs (immunostaining, Western blotting); type: cell-based; conditions: immunostaining and Western blotting
T1 construct: endogenous in cells; host or cells: NPCs, immature and mature neurons differentiated from human H9 / eGFP-H9 embryonic stem cells
Method: as §1, §2
NPCs and neurons were washed using PBS and resuspended in RIPA buffer with protease inhibitor and phosphatase inhibitor. Samples were collected to 1.5 mL tubes on ice for 15 mins. […] All samples were quantified using Quick Start™ Bradford Protein Assay (Bio-RAD), and then Laemmli buffer (Bio-RAD) was added to each tube. […]
After running at 120 V for 40 mins, proteins were transferred to PVDF membranes at 400 mA for 30 mins. […] All intensity of bands was analysed by ImageJ software and normalized to corresponding GAPDH bands.

T1 sequence (P51681 whole entry): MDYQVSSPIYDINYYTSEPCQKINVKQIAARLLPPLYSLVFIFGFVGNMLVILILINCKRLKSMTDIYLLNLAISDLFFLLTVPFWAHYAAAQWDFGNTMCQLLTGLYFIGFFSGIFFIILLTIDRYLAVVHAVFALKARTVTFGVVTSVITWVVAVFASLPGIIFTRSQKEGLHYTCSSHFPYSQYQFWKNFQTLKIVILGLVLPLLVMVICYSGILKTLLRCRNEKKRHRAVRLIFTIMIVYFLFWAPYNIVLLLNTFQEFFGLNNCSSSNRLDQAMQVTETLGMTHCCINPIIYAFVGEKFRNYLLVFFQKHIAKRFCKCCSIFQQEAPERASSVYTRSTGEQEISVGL

Row | Molecule | Cleaved-caspase3 immunostaining in grafted cells [2] | Grafted (GFP+) cells in the stroke cavity [2] | Gross appearance of the cortex [2] | Survival of grafted NPCs (overall conclusion) [2] | CCR5 level in transplanted cortical tissue [4] | Level of CCL3, 4, 5 in transplanted cortical tissue [4] | Proportion of cleaved-caspase3+ cells in NPCs [3] | other results
1 | Maraviroc [reference compound] | strong fluorescence | few or no GFP^+ cells | collapsed cortex | insufficient to improve the survival of grafted NPCs | did not downregulate | did not show obvious difference | – | Survival of neurons in the penumbra after stroke [1]: promoted the survival of those neurons and their synaptic connections; TUNEL+ cell population in NPCs under CCR5 blockade ([3]; apoptosis induced by CCLs): reduced the proportion of TUNEL^+ NPCs; Expression of CCR5 in NPCs under CCR5 blockade [5]: without reducing the expression of CCR5
2 | fibrinogen | strong fluorescence | observed in the stroke cavity | collapsed cortex | insufficient to improve the survival of grafted NPCs | did not downregulate | did not show obvious difference | – | Fate of grafted cells ([2]; one month post-transplantation): some surviving cells, which did not proliferate and became GFAP positive astrocytes
3 | CCL4: chemokine ligand 4, ligand of CCR5 (protein, UniProt P13236 24-92, looked up) C-C motif chemokine 4: APMGSDPPTACCFSYTARKLPRNFVVDYYETSSLCSQPAVVFQTKRSKQVCADPSESWVQEYVYDLELN | – | – | – | – | – | – | increased | –
4 | CCL3: chemokine ligand 3, ligand of CCR5 (protein, UniProt P10147 24-92, looked up) C-C motif chemokine 3: SLAADTPTACCFSYTSRQIPQNFIADYFETSSQCSKPGVIFLTKRSRQVCADPSEEWVQKYVSDLELSA | – | – | – | – | – | – | increased | –
5 | CCL5: chemokine ligand 5, ligand of CCR5 (protein, UniProt P13501 24-91, looked up) C-C motif chemokine 5: SPYSSDTTPCCFAYIARPLPRAHIKEYFYTSGKCSNPAVVFVTRKNRQVCANPEKKWVREYINSLEMS | – | – | – | – | – | – | increased | –
